Key:
Conditions in all cases: Compound concentration 1000.0 nM
[1] = biological target: Membrane-associated tyrosine- and threonine-specific cdc2-inhibitory kinase (Homo sapiens) (UniProt Q99640)
[2] = biological target: Serine/threonine-protein kinase 26 (Homo sapiens) (UniProt Q9P289)
[3] = biological target: Serine/threonine-protein kinase VRK2 (Homo sapiens) (UniProt Q86Y07)
[4] = biological target: Mitogen-activated protein kinase 7 (Homo sapiens) (UniProt Q13164)
[5] = biological target: cGMP-dependent protein kinase 2 (Homo sapiens) (UniProt Q13237)
[6] = biological target: Cyclin-dependent kinase 11B (Homo sapiens) (UniProt P21127)
[7] = biological target: Serine/threonine-protein kinase 3 (Homo sapiens) (UniProt Q13188)
[8] = biological target: Dual specificity protein kinase CLK4 (Homo sapiens) (UniProt Q9HAZ1)
[9] = biological target: Protein-tyrosine kinase 6 (Homo sapiens) (UniProt Q13882)
[10] = biological target: Tyrosine-protein kinase Lyn (Homo sapiens) (UniProt P07948)
[11] = biological target: Mitogen-activated protein kinase 9 (Homo sapiens) (UniProt P45984)
[12] = biological target: Serine/threonine-protein kinase RIO1 (Homo sapiens) (UniProt Q9BRS2)
[13] = biological target: Ribosomal protein S6 kinase alpha-2 (Homo sapiens) (UniProt Q15349)
[14] = biological target: Angiopoietin-1 receptor (Homo sapiens) (UniProt Q02763)
[15] = biological target: Cyclin-dependent kinase 7 (Homo sapiens) (UniProt P50613)
[16] = biological target: Maternal embryonic leucine zipper kinase (Homo sapiens) (UniProt Q14680)
[17] = biological target: Calcium/calmodulin-dependent protein kinase kinase 1 (Homo sapiens) (UniProt Q8N5S9)
[18] = biological target: cAMP-dependent protein kinase catalytic subunit beta (Homo sapiens) (UniProt P22694)
[19] = biological target: Phosphorylase b kinase gamma catalytic chain, skeletal muscle/heart isoform (Homo sapiens) (UniProt Q16816)
[20] = biological target: Cyclin-dependent kinase 11A (Homo sapiens) (UniProt Q9UQ88)
[21] = biological target: Serine/threonine-protein kinase PLK4 (Homo sapiens) (UniProt O00444)
[22] = biological target: Calcium/calmodulin-dependent protein kinase type IV (Homo sapiens) (UniProt Q16566)
[23] = system: Epidermal growth factor receptor (Homo sapiens), P00533 [UNDEFINED MUTATION]
[24] = biological target: Mast/stem cell growth factor receptor Kit (Homo sapiens) (UniProt P10721)
[25] = biological target: Serine/threonine-protein kinase PAK 6 (Homo sapiens) (UniProt Q9NQU5)
[26] = biological target: Tyrosine-protein kinase receptor UFO (Homo sapiens) (UniProt P30530)
[27] = biological target: Serine/threonine-protein kinase LATS2 (Homo sapiens) (UniProt Q9NRM7)
[28] = biological target: Mitogen-activated protein kinase 8 (Homo sapiens) (UniProt P45983)
[29] = biological target: Dual specificity protein kinase CLK2 (Homo sapiens) (UniProt P49760)
[30] = biological target: Tyrosine-protein kinase Srms (Homo sapiens) (UniProt Q9H3Y6)
[31] = biological target: Ephrin type-A receptor 7 (Homo sapiens) (UniProt Q15375)
[32] = biological target: Platelet-derived growth factor receptor alpha (Homo sapiens) (UniProt P16234)
[33] = biological target: Dual specificity mitogen-activated protein kinase kinase 1 (Homo sapiens) (UniProt Q02750)
[34] = biological target: Calcium/calmodulin-dependent protein kinase type 1D (Homo sapiens) (UniProt Q8IU85)
[35] = biological target: Phosphorylase b kinase regulatory subunit alpha, liver isoform (Homo sapiens) (UniProt P46019)
[36] = biological target: Serine/threonine-protein kinase N1 (Homo sapiens) (UniProt Q16512)
[37] = system: Receptor-type tyrosine-protein kinase FLT3 (Homo sapiens), P36888 [D835Y]
[38] = biological target: Casein kinase I isoform gamma-1 (Homo sapiens) (UniProt Q9HCP0)
[39] = biological target: Serine/threonine-protein kinase ULK3 (Homo sapiens) (UniProt Q6PHR2)
[40] = biological target: Serine/threonine-protein kinase PAK 3 (Homo sapiens) (UniProt O75914)
[41] = biological target: Phosphatidylinositol 3-kinase C2 domain-containing subunit gamma (Homo sapiens) (UniProt O75747)
[42] = biological target: Serine/threonine-protein kinase 25 (Homo sapiens) (UniProt O00506)
[43] = biological target: Cyclin-dependent kinase 9 (Homo sapiens) (UniProt P50750)

Sequence of Mitogen-activated protein kinase 9 (Homo sapiens) (P45984 whole entry, looked up): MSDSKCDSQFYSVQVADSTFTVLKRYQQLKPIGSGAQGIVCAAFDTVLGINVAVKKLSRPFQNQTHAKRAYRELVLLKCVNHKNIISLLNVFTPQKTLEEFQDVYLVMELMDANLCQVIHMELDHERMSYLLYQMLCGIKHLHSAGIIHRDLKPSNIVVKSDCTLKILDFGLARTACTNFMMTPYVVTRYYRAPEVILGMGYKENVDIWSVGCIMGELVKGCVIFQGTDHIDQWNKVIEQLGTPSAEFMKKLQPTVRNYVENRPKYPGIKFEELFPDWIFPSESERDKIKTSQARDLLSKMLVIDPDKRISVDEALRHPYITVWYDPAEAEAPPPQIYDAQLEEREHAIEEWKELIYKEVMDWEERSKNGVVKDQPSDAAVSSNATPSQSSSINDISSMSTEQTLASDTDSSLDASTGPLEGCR
Sequence of Dual specificity mitogen-activated protein kinase kinase 1 (Homo sapiens) (Q02750 whole entry): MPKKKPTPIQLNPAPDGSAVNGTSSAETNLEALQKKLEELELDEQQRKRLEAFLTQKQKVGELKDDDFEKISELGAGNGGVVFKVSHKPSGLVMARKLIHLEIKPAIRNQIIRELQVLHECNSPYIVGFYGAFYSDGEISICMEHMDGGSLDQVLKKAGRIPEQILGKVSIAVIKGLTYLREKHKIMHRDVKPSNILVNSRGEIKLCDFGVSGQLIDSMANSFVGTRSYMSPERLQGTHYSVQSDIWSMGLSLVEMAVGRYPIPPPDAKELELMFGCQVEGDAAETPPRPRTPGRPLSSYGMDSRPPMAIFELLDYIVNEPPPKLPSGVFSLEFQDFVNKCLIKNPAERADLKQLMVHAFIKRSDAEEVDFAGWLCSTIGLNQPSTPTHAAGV
Sequence of Phosphorylase b kinase regulatory subunit alpha, liver isoform (Homo sapiens) (P46019 whole entry, canonical isoform): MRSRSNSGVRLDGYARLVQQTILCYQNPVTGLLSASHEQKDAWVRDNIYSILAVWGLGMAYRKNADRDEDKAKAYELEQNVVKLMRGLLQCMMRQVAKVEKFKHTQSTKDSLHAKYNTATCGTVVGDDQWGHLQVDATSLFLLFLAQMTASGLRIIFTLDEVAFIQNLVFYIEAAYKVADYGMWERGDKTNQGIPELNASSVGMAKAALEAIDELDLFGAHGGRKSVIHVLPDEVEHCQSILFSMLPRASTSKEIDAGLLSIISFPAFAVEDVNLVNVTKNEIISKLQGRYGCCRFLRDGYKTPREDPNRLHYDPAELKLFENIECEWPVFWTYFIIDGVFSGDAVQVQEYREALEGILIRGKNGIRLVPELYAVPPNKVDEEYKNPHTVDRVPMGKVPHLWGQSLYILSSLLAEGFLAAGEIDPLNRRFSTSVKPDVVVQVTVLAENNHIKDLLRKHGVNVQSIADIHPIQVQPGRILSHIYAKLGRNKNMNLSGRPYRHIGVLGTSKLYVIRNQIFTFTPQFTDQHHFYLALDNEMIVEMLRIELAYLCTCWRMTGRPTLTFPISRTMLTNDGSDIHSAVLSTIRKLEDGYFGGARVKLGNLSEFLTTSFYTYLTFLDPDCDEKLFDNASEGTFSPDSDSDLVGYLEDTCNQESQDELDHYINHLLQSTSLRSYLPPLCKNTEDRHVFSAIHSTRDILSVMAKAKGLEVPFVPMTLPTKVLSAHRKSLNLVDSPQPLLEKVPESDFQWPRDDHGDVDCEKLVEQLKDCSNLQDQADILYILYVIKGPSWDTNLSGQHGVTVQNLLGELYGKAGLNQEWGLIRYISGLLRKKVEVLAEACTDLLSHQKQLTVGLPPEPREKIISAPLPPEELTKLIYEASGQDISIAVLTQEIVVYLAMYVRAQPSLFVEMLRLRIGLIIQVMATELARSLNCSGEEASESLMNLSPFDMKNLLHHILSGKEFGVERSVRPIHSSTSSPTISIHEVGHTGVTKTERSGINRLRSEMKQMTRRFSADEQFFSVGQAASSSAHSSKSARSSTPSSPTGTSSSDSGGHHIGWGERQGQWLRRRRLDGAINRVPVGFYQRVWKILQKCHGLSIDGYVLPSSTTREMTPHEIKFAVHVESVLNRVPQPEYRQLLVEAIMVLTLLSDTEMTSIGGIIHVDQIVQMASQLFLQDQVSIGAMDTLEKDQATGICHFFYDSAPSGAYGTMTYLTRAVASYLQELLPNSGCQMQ
Sequence of Cyclin-dependent kinase 11A (Homo sapiens) (Q9UQ88 whole entry): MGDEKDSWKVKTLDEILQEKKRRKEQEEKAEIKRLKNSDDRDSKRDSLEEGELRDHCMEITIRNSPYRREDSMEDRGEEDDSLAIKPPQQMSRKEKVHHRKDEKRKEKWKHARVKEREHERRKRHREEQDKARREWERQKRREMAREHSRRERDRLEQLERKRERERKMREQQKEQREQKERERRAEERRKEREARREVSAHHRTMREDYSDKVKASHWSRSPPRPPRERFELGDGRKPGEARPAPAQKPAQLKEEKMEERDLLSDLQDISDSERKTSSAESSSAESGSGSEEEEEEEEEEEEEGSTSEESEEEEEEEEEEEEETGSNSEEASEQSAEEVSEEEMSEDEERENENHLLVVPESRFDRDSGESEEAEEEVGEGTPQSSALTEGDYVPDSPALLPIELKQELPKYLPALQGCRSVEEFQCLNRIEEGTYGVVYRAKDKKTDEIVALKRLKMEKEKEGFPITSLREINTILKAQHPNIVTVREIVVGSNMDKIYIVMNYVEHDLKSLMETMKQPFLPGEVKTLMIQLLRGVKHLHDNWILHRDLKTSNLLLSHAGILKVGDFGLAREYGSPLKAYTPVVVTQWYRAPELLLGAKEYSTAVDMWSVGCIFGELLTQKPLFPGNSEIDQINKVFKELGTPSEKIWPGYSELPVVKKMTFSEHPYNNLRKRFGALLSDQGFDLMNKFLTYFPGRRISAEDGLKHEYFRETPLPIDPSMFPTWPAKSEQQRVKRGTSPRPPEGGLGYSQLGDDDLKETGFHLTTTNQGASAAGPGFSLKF
Sequence of Protein-tyrosine kinase 6 (Homo sapiens) (Q13882 whole entry, looked up): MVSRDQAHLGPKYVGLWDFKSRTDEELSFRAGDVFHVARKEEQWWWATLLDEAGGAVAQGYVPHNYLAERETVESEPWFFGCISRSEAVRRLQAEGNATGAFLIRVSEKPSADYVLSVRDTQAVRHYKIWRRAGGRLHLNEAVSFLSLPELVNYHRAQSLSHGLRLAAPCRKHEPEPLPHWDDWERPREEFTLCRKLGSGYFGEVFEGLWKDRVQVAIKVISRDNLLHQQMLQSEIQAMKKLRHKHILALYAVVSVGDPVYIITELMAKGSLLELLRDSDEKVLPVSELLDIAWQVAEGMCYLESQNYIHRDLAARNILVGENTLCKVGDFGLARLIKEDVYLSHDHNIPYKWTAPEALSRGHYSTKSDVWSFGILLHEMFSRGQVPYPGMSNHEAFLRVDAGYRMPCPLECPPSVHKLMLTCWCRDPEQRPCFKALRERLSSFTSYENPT
Sequence of Maternal embryonic leucine zipper kinase (Homo sapiens) (Q14680 whole entry, looked up): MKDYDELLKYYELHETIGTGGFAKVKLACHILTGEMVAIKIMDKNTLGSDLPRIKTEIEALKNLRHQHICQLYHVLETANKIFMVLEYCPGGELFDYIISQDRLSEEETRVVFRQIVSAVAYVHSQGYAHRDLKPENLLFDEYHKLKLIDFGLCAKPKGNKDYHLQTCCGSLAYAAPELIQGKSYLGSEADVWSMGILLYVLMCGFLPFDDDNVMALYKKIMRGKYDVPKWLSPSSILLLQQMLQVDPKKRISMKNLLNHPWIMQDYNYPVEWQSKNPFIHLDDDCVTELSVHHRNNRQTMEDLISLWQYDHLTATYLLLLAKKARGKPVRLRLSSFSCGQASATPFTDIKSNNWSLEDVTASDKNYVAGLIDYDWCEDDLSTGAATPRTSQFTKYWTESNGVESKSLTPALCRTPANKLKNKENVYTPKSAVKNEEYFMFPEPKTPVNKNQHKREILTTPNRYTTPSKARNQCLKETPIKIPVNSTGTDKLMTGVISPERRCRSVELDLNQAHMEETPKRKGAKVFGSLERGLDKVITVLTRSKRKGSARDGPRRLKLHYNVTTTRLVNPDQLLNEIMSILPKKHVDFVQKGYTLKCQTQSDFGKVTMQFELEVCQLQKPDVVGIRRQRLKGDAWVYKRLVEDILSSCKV
Sequence of Serine/threonine-protein kinase 26 (Homo sapiens) (Q9P289 2-416 limits assumed): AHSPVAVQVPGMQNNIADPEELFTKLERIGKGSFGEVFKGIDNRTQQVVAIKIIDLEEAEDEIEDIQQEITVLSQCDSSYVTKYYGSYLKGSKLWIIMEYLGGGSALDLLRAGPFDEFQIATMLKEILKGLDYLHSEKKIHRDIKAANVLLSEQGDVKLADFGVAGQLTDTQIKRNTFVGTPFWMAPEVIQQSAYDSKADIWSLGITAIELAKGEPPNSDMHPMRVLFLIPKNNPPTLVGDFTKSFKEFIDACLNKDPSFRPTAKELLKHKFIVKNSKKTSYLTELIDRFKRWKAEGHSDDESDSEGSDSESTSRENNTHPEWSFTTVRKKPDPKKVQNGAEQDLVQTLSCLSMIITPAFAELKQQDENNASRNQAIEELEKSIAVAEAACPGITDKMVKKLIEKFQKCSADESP
Sequence of Serine/threonine-protein kinase 25 (Homo sapiens) (O00506 whole entry, looked up): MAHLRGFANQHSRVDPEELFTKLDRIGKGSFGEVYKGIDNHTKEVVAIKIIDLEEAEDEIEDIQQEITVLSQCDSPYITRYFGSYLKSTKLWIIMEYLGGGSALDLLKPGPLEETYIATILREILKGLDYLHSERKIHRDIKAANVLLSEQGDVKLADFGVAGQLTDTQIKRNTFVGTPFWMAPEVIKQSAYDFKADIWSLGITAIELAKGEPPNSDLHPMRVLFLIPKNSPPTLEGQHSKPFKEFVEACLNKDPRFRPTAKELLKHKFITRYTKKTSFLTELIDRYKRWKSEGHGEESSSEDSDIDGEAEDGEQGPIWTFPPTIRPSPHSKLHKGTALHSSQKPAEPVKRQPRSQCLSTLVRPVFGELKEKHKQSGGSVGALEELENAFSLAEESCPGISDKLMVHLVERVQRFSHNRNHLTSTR

O=C(NCc1ncc(C(F)(F)F)cc1Cl)c1ccc2c(c1)C1(CCS(=O)(=O)CC1)[C@H](C1CC1)N2S(=O)(=O)c1ccc(F)cc1 [BAY-784]
residual activity [1]: 100%
residual activity [2]: 100%
residual activity [3]: 95%
residual activity [4]: 99%
residual activity [5]: 77%
residual activity [6]: 100%
residual activity [7]: 100%
residual activity [8]: 0%
residual activity [9]: 100%
residual activity [10]: 100%
residual activity [11]: 76%
residual activity [12]: 100%
residual activity [13]: 99%
residual activity [14]: 100%
residual activity [15]: 64%
residual activity [16]: 54%
residual activity [17]: 100%
residual activity [18]: 96%
residual activity [19]: 100%
residual activity [20]: 100%
residual activity [21]: 92%
residual activity [22]: 86%
residual activity [23]: 100%
residual activity [24]: 76%
residual activity [25]: 100%
residual activity [26]: 100%
residual activity [27]: 100%
residual activity [28]: 87%
residual activity [29]: 100%
residual activity [30]: 71%
residual activity [31]: 100%
residual activity [32]: 90%
residual activity [33]: 98%
residual activity [34]: 85%
residual activity [35]: 96%
residual activity [36]: 100%
residual activity [37]: 100%
residual activity [38]: 86%
residual activity [39]: 85%
residual activity [40]: 91%
residual activity [41]: 75%
residual activity [42]: 100%
residual activity [43]: 100%

O=C(NCc1ncc(C(F)(F)F)cc1Cl)c1ccc2c(c1)C1(CCS(=O)(=O)CC1)[C@@H](C1CC1)N2S(=O)(=O)c1ccc(F)cc1 [BAY-786]
residual activity [1]: 92%
residual activity [2]: 82%
residual activity [3]: 98%
residual activity [4]: 97%
residual activity [5]: 89%
residual activity [6]: 100%
residual activity [7]: 87%
residual activity [8]: 100%
residual activity [9]: 94%
residual activity [10]: 100%
residual activity [11]: 82%
residual activity [12]: 78%
residual activity [13]: 100%
residual activity [14]: 96%
residual activity [15]: 56%
residual activity [16]: 100%
residual activity [17]: 72%
residual activity [18]: 85%
residual activity [19]: 100%
residual activity [20]: 100%
residual activity [21]: 92%
residual activity [22]: 71%
residual activity [23]: 85%
residual activity [24]: 82%
residual activity [25]: 100%
residual activity [26]: 100%
residual activity [27]: 99%
residual activity [28]: 55%
residual activity [29]: 82%
residual activity [30]: 60%
residual activity [31]: 100%
residual activity [32]: 87%
residual activity [33]: 91%
residual activity [34]: 99%
residual activity [35]: 84%
residual activity [36]: 100%
residual activity [37]: 100%
residual activity [38]: 90%
residual activity [39]: 69%
residual activity [40]: 89%
residual activity [41]: 75%
residual activity [42]: 99%
residual activity [43]: 100%

Reference: ChEMBL document CHEMBL4507266, “Data for DCP probe BAY-784” (2021)
